Earlier results as cited in patent US11752142B2, “Oral pharmaceutical compositions of dabigatran etexilate” (Breckenridge Pharmaceutical, Inc., priority 2012, dated 2023).
Structures can show the parent of a compound that is named as a salt. Where two headings read alike, the source gives them in different places. Each block holds one compound with its values, some of them ahead of it.

How the values were obtained:
[1] = not given; remark: listed apart in the source
[2] = not given; remark: listed apart in the source

- aqueous solubility (acidic media): rather high solubility
- aqueous solubility (neutral and basic media): very poor solubility
- BCS class (poor aqueous solubility but good membrane permeability): BCS Class II
- sensitivity to light irradiation ([1]; light irradiation): not sensitive to light irradiation
- stability ([1]; solid state): stable in the solid state
SMILES: CCCCCCOC(=O)NC(=N)c1ccc(NCc2nc3cc(C(=O)N(CCC(=O)OCC)c4ccccn4)ccc3n2C)cc1 [DEM, dabigatran etexilate mesylate]

- Tmax ([2]; absorption of the active): 45 minutes-1 hour
SMILES: CCCCCCOC(=O)NC(=N)c1ccc(NCc2nc3cc(C(=O)N(CCC(=O)OCC)c4ccccn4)ccc3n2C)cc1 [dabigatran etexilate, 3-[(2-{4-(hexyloxycarbonylamino-imino-methyl)-phenylamino]methyl}-1-methyl-1H-benzimidazol-5-carbonyl)-pyridin-2-yl-amino-propionic acid ethyl ester]

- absolute bioavailability ([2]; dabigatran following oral administration of dabigatran etexilate): 3-7%
- elimination half life ([2]; following oral administration of dabigatran etexilate): 12 to 17 h
SMILES: [H]/N=C(/N)c1ccc(NCc2nc3cc(C(=O)N(CCC(=O)O)c4ccccn4)ccc3n2C)cc1 [dabigatran]
